{
  "source": "patent US20250195547A1",
  "about": "“COMPOSITIONS AND METHODS OF TREATMENT FOR CONGENITAL DIARRHEAL DISORDER” (VANDERBILT UNIVERSITY, priority 2022, published 2025)",
  "key": {"Myo5bΔINT enteroids": {"system": "Myo5bΔINT enteroids", "assay": "Bulk transcriptional analysis (RNA-seq) in MYO5B deficient mouse enteroids", "type": "cell-based", "settings": "100 nM", "description": "Enteroids were generated from jejunal crypts of adult VilCre^ERT2; Myo5b^flox/flox and VilCre^ERT2; Myo5b^flox/G519R mice (Burman & Momoh CMGH) without tamoxifen treatment and passaged twice with mechanical breakdown. One day after the second passage, 1 μM 4-OH-tamoxifen (SML1666, Sigma) was added into the IntestiCult Organoid Growth Medium (Mouse, Stem Cell Technology) and incubated for 24 hours to induce Cre recombinase. After the incubation with 4-OH-tamoxifen (induced KO or G519R) or the vehicle, 100% ethanol (Control), the medium was replaced with the modified Minigut medium (Mahe et al., 2013) containing 5% Noggin conditioned medium and 5% R-spondin conditioned medium (Vanderbilt Organoid Core) to withdraw Wnt and EGF for enhancing cell differentiation (Kaji JCI Insight). Some iKO enteroids were incubated with 100 nM Compound-1 for 2 days in differentiation conditions.\nFollowing differentiation, enteroids were placed in Organoid Harvesting Solution (3700-100-01; Cultrex) for 1 hr at 4° C. Enteroids were washed with PBS and centrifuged. Enteroid pellets were immersed in TRIzol reagent (15596026; Invitrogen) supplemented with glycogen (G1767; Sigma Aldrich) and stored at −20° C. Total RNA was extracted from enteroids following the manufacturer's instructions. RNA-sequencing with 4 samples per group and differential expressing gene analysis were performed in Novogene."}, "Myo5bΔINT mice": {"system": "Myo5bΔINT mice", "assay": "Daily LPAR agonist treatment of tamoxifen-induced Myo5bΔINT mice (MVID model), intestinal histology and immunostaining", "type": "in vivo, mouse", "settings": "for Hmgcs2 protein expression in jejunal epithelial cells / apical localization of transporters NHE3 and SGLT1: immunostaining; for Hmgcs2 protein expression in jejunal epithelial cells: once daily ip for 4 days; for tuft cell differentiation (tuft cell population) in Myo5bΔINT intestine: once a day for 4 days, LPA 3 mg/kg, Compound-1 1 mg/kg, UCM-05194 10 mg/kg, GRI977143 3 mg/kg; for apical localization of transporters NHE3 and SGLT1: small intestine, daily treatment", "description": "All animal studies were performed with approval from the Institutional Animal Care and Use Committee of Vanderbilt University Medical Center (M2000104). At the 8-10 week of age, Myo5bΔINT mice and littermate controls (VilCre^ERT2; Myo5b^+/flox and Myo5b^flox/flox) received a single dose of tamoxifen (100 mg/kg) by intraperitoneal (IP) injection (day 0) (Weis et al.). […] Compound-1 was dissolved in PBS, and UCM-05194 was dissolved in Captisol solution. Body weight changes and diarrhea symptoms were investigated daily. On day 4, mice were euthanized and the duodenum (0-8 cm from the pyloric ring), jejunum (8 cm following the duodenum), ileum (distal 8 cm from the ileocecal junction), and colon were collected for pathological assessment as previously reported (Kaji et al.).\nImmunofluorescence staining and imaging were performed as previously reported (Kaji, JCI Insight). Four-μm-thin sections were deparaffinized and rehydrated before performing antigen retrieval using 10 mM sodium citrate buffer, contained 0.05% Tween 20 (pH 6), in a pressure cooker for 15 minutes. After cooling down on ice, slides were rinsed in PBS and blocked with protein block serum-free (Dako) for 1 hour at r/t or overnight at 4° C. The primary antibodies against NHE3 (1:200), SGLT1 (0.5 μg/ml) (Kaji et al., 2020), DCLK1 (AF647-conjugated, 1:2000), KRT19 (1:250), CD3, HMGCS2 (1:50), or Actg1 (1:100) were diluted in Dako diluent in background reducing compound (S3022) and incubated on sections overnight at 4° C. After rinsing in 0.1 M PBS, the slides were incubated with the corresponding secondary antibodies conjugated with fluorescence (Jackson Laboratory) for 1 hour. Slides were rinsed in 0.1 M PBS and counterstained with Hoechst 33342 (4 mM, Thermo Fisher Scientific, Waltham, MA) in PBS. The stained slides were cover-slipped with ProLong Gold Antifade Reagent (P36934, Thermo Fisher). Whole slide images were scanned by a Versa imager 200 with a 20× objective (Leica Biosystems, Buffalo Grove, IL) in the Vanderbilt Digital Histology Shared Resource (DHSR). Some immunofluorescence images were taken by using a Zeiss Axio Imager M2 with ApoTome (Carl Zeiss Microscopy, LLC, White Plains NY).\nThe DIA code to quantify the tuft cell populations was developed at the DHSR on Python platform as described previously (Kaji 2021)."}, "human LPAR5": {"target": "human LPAR5 (Homo sapiens, UniProt Q9H1C0)", "sequence (Q9H1C0 whole entry)": "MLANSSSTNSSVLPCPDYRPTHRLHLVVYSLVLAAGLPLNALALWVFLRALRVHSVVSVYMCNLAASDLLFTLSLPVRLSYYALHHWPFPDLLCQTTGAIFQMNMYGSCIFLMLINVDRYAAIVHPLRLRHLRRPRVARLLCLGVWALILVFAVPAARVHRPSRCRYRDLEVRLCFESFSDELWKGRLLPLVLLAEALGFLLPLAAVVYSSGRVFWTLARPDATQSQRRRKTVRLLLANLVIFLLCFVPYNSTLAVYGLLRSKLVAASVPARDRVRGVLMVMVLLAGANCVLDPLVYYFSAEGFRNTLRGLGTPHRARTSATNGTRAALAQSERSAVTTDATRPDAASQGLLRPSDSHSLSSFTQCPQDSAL", "settings": "cited from earlier work"}, "Solubility / stability": {"assay": "Solubility / stability", "type": "physicochemical", "settings": "as a sodium salt"}, "[1]": {"assay": "Plasma level after bolus intraperitoneal injection in wild type adult mice", "type": "in vivo, mouse"}, "[2]": {"system": "MYO5B(P663L) pig enteroids", "assay": "Tuft cell differentiation in pig MVID model enteroids", "type": "cell-based", "settings": "100 nM daily in ODM, 5 days, vs vehicle (PBS)", "description": "Pig enteroids were expanded in Matrigel (Corning) immersed in IntestiCult Organoid Growth Medium (Human, OGM, Stem Cell Technology). Organoid growth was assessed in 96-well plate and continuously imaged whole wells using a JuLi™ Stage (NanoEn Tek Inc., Waltham, MA). Organoid perimeter was measured by using FIJI, and organoid forming rate was calculated as sphere numbers per plated cell numbers 7 days after the passaging. N=7-9 wells from each genotype. In a different set of culture, tuft cells were differentiated in Organoid Differentiation Medium (ODM, Stem Cell Technology) for 5 days, following after 2 days culture in OGM after passaging. MYO5B(P663L) enteroids were incubated with 100 nM Compound-1 or vehicle (PBS) in ODM.\nOrganoids were fixed with 10% NBF for 30 min in Matrigel domes, rinsed with cold PBS containing 0.1% FBS and centrifuged to remove Matrigel. Fixed organoids were blocked with 5% normal donkey serum in PBS containing 0.3% Triton X-100 for 2 hours and incubated with the pGirdin (1:100) or POU2F3 (1:200) antibody diluted with the blocking solution for 2 days at 4° C. After rinsing in PBS with Triton X-100, donkey anti-rabbit Cy3 antibody (2.5 μg/ml), Alexa Fluor 488 phalloidin (1:400, A12379, Thermo Fisher), and Hoechst 33342 (2 mM) were applied for 2 hr. […]"}, "human LPAR3": {"target": "T1, human LPAR3 (Homo sapiens, UniProt Q9UBY5)", "T1 sequence (Q9UBY5 1-353)": "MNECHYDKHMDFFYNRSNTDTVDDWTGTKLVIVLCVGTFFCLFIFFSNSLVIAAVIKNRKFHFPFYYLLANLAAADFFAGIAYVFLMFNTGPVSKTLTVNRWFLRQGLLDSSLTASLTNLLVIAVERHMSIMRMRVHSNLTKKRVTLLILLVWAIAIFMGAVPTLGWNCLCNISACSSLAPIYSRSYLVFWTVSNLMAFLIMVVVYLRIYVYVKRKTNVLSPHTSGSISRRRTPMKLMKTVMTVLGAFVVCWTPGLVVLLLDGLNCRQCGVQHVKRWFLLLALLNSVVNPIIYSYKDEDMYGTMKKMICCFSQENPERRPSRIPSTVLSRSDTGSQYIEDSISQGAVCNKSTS", "settings": "cited from earlier work"}, "[3]": {"settings": "natural LPA; background statement; cited from earlier work"}},
  "note": "“Also recorded” adds a separate entry of the source.",
  "data": [
    {"smiles": "CCCCCCCCCCCCCCCCOC(CCP([O-])(O)=S)COC.[Na+]", "note": "(stereo not shown) [Compound-1]", "values": [
      {"measurement": "Nox1 expression decreased by MYO5B loss", "setting": "Myo5bΔINT enteroids; 2 days", "value": "reversed"},
      {"measurement": "inflammation- and infection-related genes (Nlrp1b, Ldhb, Hspg2, Trim30) increased by MYO5B loss", "setting": "Myo5bΔINT enteroids; 2 days during differentiation", "value": "significantly reversed"},
      {"measurement": "Hmgcs2 expression in enteroids with and without Compound-1", "setting": "Myo5bΔINT enteroids; 2 days, control vs MYO5B deficient enteroids", "value": "comparable"},
      {"measurement": "Intestinal villus/crypt ratio", "setting": "Myo5bΔINT mice; Compound-1 1 mg/kg daily, intraperitoneal, 4 days, vs vehicle", "value": "significantly improved"},
      {"measurement": "increase of villus/crypt ratio in the small intestine", "setting": "Myo5bΔINT mice; daily Compound-1 treatment", "value": 150, "unit": "%"},
      {"measurement": "effect of subcutaneous tablet insertion (continuous delivery)", "setting": "Myo5bΔINT mice; high dose 2 mg/mouse per tablet", "value": "no consistent effect"},
      {"measurement": "Hmgcs2 protein expression in jejunal epithelial cells", "setting": "Myo5bΔINT mice", "value": "remarkably upregulated"},
      {"measurement": "effect of subcutaneous tablet insertion (continuous delivery)", "setting": "Myo5bΔINT mice; low dose 0.2 mg/mouse per tablet", "value": "no consistent effect"},
      {"measurement": "tuft cell differentiation (tuft cell population) in Myo5bΔINT intestine", "setting": "Myo5bΔINT mice", "value": "reversed; also recorded: significantly increased"},
      {"measurement": "apical localization of transporters NHE3 and SGLT1", "setting": "Myo5bΔINT mice", "value": "partially recovered; also recorded: partially reversed to normal"},
      {"measurement": "body weight loss", "setting": "Myo5bΔINT mice; within 4 days, similar to vehicle-treated group", "value": "approximately 14%"},
      {"measurement": "EC50", "setting": "human LPAR5", "value": 0.26, "unit": "nM"},
      {"measurement": "solubility in water", "setting": "Solubility / stability", "value": "highly soluble"},
      {"measurement": "Compound in plasma", "setting": "[1]; 1 hour after bolus ip injection 10 mg/kg", "value": "detected"},
      {"measurement": "plasma concentration (disappeared)", "setting": "[1]; within 6 hours after bolus ip injection 10 mg/kg", "value": "< 10", "unit": "ng/mL"},
      {"measurement": "tuft cell numbers in MYO5B(P663L) enteroids", "setting": "[2]", "value": "significantly increased"},
      {"measurement": "effect on human LPAR3", "setting": "human LPAR3", "value": "agonistic effect"}
    ]},
    {"smiles": "O=C(CCCc1ccccc1)O[C@H](CBr)COP(=O)(O)O", "note": "[UCM-05194, reference compound]", "values": [
      {"measurement": "intestinal histology", "setting": "Myo5bΔINT mice; once a day for 4 days after tamoxifen", "value": "did not significantly alter"},
      {"measurement": "tuft cell differentiation (tuft cell population) in Myo5bΔINT intestine", "setting": "Myo5bΔINT mice", "value": "no significant effect"}
    ]},
    {"smiles": "CCCCCCCC/C=C\\CCCCCCCC(=O)OCC(O)COP(=O)(O)O", "note": "(stereo not shown) [LPA, 18:1 1-oleoyl-Lyso PA, reference compound]", "values": [
      {"measurement": "fatty acid oxidation or lipogenesis pathways (transcription)", "setting": "Myo5bΔINT mice; RNA-seq of jejunal epithelial cells, in vivo LPA (18:1)", "value": "did not reverse"},
      {"measurement": "transcription of Hmgcs2 in jejunal epithelial cells", "setting": "Myo5bΔINT mice; RNA-seq, vs vehicle-treated Myo5bΔINT or healthy littermate mice", "value": "significantly upregulated"},
      {"measurement": "Hmgcs2 protein expression in jejunal epithelial cells", "setting": "Myo5bΔINT mice", "value": "further increased"},
      {"measurement": "tuft cell differentiation (tuft cell population) in Myo5bΔINT intestine", "setting": "Myo5bΔINT mice", "value": "reversed"},
      {"measurement": "apical localization of transporters NHE3 and SGLT1", "setting": "Myo5bΔINT mice", "value": "similarly improved"},
      {"measurement": "solubility and stability", "setting": "[3]", "value": "poor"}
    ]}
  ]
}
